{"source": "patent US20210128584A1", "about": "“USE OF GLUCOCORTICOID RECEPTOR ANTAGONISTS FOR THE TREATMENT OF AMYOTROPHIC LATERAL SCLEROSIS” (Corcept Therapeutics Incorporated, priority 2008, published 2021)", "origin": "cited, not measured here", "data": [{"compound": "CC#C[C@]1(O)CC[C@H]2[C@@H]3CCC4=CC(=O)CCC4=C3[C@@H](c3ccc(N(C)C)cc3)C[C@@]21C", "note": "[Mifepristone, 17β-hydroxy-11β-(4-dimethyl-aminophenyl)-17α-(1-propynyl)-estra-4,9-dien-3-one]", "values": [{"measurement": "fraction of the daily dose excreted in the urine", "value": "less than 0.5%"}]}]}
